The results in this text go back to patent US20240092773A1, “DIHYDRO-CYCLOPENTA-ISOQUINOLINE SULFONAMIDES DERIVATIVES” (UCB Biopharma SRL, priority 2019, published 2024).

The term IC50 denotes the concentration that inhibits the measured activity by half.

The structures appear in SMILES notation.

The assay deals with IgE-Tb binding to soluble IgE receptor FcεR1α (Y131A mutation) (Homo sapiens, UniProt P01854, N146Q/N252Q). The experiment in a line: In vitro FRET assay: inhibition of binding of IgE-Tb to receptor FcεR1α-Y131A-AF488. Conditions: read-out: FRET IC50 range.
Sequence of IgE-Tb binding to soluble IgE receptor FcεR1α (Y131A mutation) (P01854 whole entry N146Q/N252Q, looked up): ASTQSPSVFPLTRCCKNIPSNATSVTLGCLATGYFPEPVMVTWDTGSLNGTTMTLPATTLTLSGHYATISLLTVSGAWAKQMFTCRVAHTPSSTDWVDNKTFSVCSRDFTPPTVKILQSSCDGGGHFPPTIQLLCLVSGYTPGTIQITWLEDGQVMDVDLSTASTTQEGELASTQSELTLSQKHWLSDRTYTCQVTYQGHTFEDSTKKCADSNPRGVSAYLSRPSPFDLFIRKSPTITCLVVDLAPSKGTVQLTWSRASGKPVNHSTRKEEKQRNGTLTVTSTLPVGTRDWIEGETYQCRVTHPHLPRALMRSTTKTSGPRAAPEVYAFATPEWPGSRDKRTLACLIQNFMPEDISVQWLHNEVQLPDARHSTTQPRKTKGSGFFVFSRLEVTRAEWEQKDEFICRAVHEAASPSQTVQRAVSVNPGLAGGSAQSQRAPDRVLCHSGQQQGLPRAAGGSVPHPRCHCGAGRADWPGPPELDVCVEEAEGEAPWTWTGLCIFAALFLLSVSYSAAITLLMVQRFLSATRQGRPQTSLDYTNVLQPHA

For the compound `CC1CC1C(=O)NC1CCc2cc(S(=O)(=O)NCC(C)(C)F)c3cc(C4CC4)ncc3c21` (centres unmarked) [Example 26, N-[3-cyclopropyl-5-[(2-fluoro-2-methylpropyl)sulfamoyl]-8,9-dihydro-7H-cyclopenta[h]isoquinolin-9-yl]-2-methylcyclopropane-1-carboxamide], the IC50 lay in the range of 100 to 2000 nM. The figure for `CC(C)CNS(=O)(=O)c1cc2c(c3cnc(C4CC4)cc13)C(Nc1nncn1-c1cncc(F)c1)CC2` (centres unmarked) [Example 5, 3-cyclopropyl-9-[[4-(5-fluoro-3-pyridyl)-1,2,4-triazol-3-yl]amino]-N-isobutyl-8,9-dihydro-7H-cyclopenta[h]isoquinoline-5-sulfonamide] is 100 to 2000 nM.

As to `CC(C)CNS(=O)(=O)c1cc2c(c3cnc(C4CC4)cc13)CCC2NC(=S)Nc1cccnc1` (centres unmarked) [Example 95, 1-[3-cyclopropyl-5-(isobutylsulfamoyl)-8,9-dihydro-7H-cyclopenta[h]isoquinolin-7-yl]-3-(3-pyridyl)thiourea], the IC50 is 10 to 50 nM. Next, `COc1ccnc2c1ncn2C1CCc2c1cc(S(=O)(=O)NCC(C)(C)F)c1cc(C3CC3)ncc21` (centres unmarked) [Example 1, 3-cyclopropyl-N-(2-fluoro-2-methylpropyl)-7-(7-methoxyimidazo[4,5-b]pyridin-3-yl)-8,9-dihydro-7H-cyclopenta[h]isoquinoline-5-sulfonamide]: 100 to 2000 nM. Take `CC(C)CNS(=O)(=O)c1cc2c(c3cnc(C4CC4)cc13)C(Nc1ccc(C(=O)O)nc1)CC2` (centres unmarked) [Example 19, 5-[[3-cyclopropyl-5-(2-methylpropylsulfamoyl)-8,9-dihydro-7H-cyclopenta[h]isoquinolin-9-yl]amino]pyridine-2-carboxylic Acid]: the IC50 lay within 100 to 2000 nM.

Consider `CC(C)CNS(=O)(=O)c1cc2c(c3nnc(C4CC4)cc13)CCC2` [Example 22, 3-cyclopropyl-N-(2-methylpropyl)-8,9-dihydro-7H-cyclopenta[h]cinnoline-5-sulfonamide], for which the concentration for half-maximal inhibition (IC50) was 50 to 100 nM. The figure for `Cc1ccc(N/C(=N\C#N)NC2CCc3cc(S(=O)(=O)NCC(C)C)c4cc(C5CC5)ncc4c32)cc1` (centres unmarked) [Example 69, 2-cyano-1-[3-cyclopropyl-5-(2-methylpropylsulfamoyl)-8,9-dihydro-7H-cyclopenta[h]isoquinolin-9-yl]-3-(4-methylphenyl)guanidine] is 100 to 2000 nM; for `CC(C)(F)CNS(=O)(=O)c1cc2c(c3cnc(C4CC4)cc13)CCC2C(=O)O` (centres unmarked) [Example 7, 3-cyclopropyl-5-[(2-fluoro-2-methylpropyl)sulfamoyl]-8,9-dihydro-7H-cyclopenta[h]isoquinoline-7-carboxylic Acid] it is 100 to 2000 nM; for `CC(C)CNS(=O)(=O)c1cc2c(c3cnc(C4CC4)cc13)C(F)CC2` (centres unmarked) [Example 65, 3-cyclopropyl-9-fluoro-N-(2-methylpropyl)-8,9-dihydro-7H-cyclopenta[h]isoquinoline-5-sulfonamide] it is 100 to 2000 nM. Regarding `CC(C)CNS(=O)(=O)c1cc2c(c3cnc(C4CC4)cc13)[C@@H](Nc1nc3ccccc3[nH]1)CC2` (single isomer, unassigned) [Example 80, (9R*)-9-(1H-benzimidazol-2-ylamino)-3-cyclopropyl-N-(2-methylpropyl)-8,9-dihydro-7H-cyclopenta[h]isoquinoline-5-sulfonamide], the IC50 lay within 10 to 50 nM. The figure for `CC(C)(F)CNS(=O)(=O)c1cc2c(c3cnc(C4CC4)cc13)C(Nc1cncnc1)CC2` (centres unmarked) [Example 28, 3-cyclopropyl-N-(2-fluoro-2-methylpropyl)-9-(pyrimidin-5-ylamino)-8,9-dihydro-7H-cyclopenta[h]isoquinoline-5-sulfonamide] is 50 to 100 nM; for `COc1cncc(NC2CCc3cc(S(=O)(=O)NCC(C)(C)F)c4cc(C5CC5)ncc4c32)c1` (centres unmarked) [Example 30, 3-cyclopropyl-N-(2-fluoro-2-methylpropyl)-9-[(5-methoxypyridin-3-yl)amino]-8,9-dihydro-7H-cyclopenta[h]isoquinoline-5-sulfonamide] it is 10 to 50 nM; for `Cc1cc(Nc2nncn2[C@@H]2CCc3c2cc(S(=O)(=O)NCC(C)C)c2cc(C4CC4)ncc32)n(C)n1` (single isomer, unassigned) [Example 87, (7R*)-3-cyclopropyl-7-[3-[(2,5-dimethylpyrazol-3-yl)amino]-1,2,4-triazol-4-yl]-N-(2-methylpropyl)-8,9-dihydro-7H-cyclopenta[h]isoquinoline-5-sulfonamide] it is 10 to 50 nM. The figure for `Cc1cc(-n2cnnc2NC2CCc3c2cc(S(=O)(=O)NCC(C)(C)F)c2cc(C4CC4)nnc32)n(C)n1` (centres unmarked) [Example 24, 3-cyclopropyl-7-[[4-(2,5-dimethylpyrazol-3-yl)-1,2,4-triazol-3-yl]amino]-N-(2-fluoro-2-methylpropyl)-8,9-dihydro-7H-cyclopenta[h]cinnoline-5-sulfonamide] is 10 to 50 nM. For `CC(C)CNS(=O)(=O)c1cc2c(c3cnc(C4CC4)cc13)C(Nc1nncn1-c1ccnn1C)CC2` (centres unmarked) [Example 3, 3-cyclopropyl-N-isobutyl-9-[[4-(2-methylpyrazol-3-yl)-1,2,4-triazol-3-yl]amino]-8,9-dihydro-7H-cyclopenta[h]isoquinoline-5-sulfonamide], the IC50 is 100 to 2000 nM.

On to `CCNc1c(NC2CCc3c2cc(S(=O)(=O)NCC(C)C)c2cc(C4CC4)ncc32)c(=O)c1=O` (single isomer, unassigned) [Example 53, (7R*)-3-cyclopropyl-7-[[2-(ethylamino)-3,4-dioxocyclobuten-1-yl]amino]-N-(2-methylpropyl)-8,9-dihydro-7H-cyclopenta[h]isoquinoline-5-sulfonamide], for which the IC50 lay in the range of 10 to 50 nM. In the case of `CC(C)(F)CNS(=O)(=O)c1cc2c(c3cnc(C4CC4)cc13)CCC2n1nccc1NC(=O)C1CC1` (centres unmarked) [Example 38, N-[2-[3-cyclopropyl-5-[(2-fluoro-2-methylpropyl)sulfamoyl]-8,9-dihydro-7H-cyclopenta[h]isoquinolin-7-yl]pyrazol-3-yl]cyclopropanecarboxamide], the IC50 was 100 to 2000 nM. For the compound `CC(C)CNS(=O)(=O)c1cc2c(c3cnc(C4CC4)cc13)CCC2NS(C)(=O)=O` (centres unmarked) [Example 83, 3-cyclopropyl-7-(methanesulfonamido)-N-(2-methylpropyl)-8,9-dihydro-7H-cyclopenta[h]isoquinoline-5-sulfonamide], the IC50 was 100 to 2000 nM. The figure for `CCNC1=NS(=O)(=O)N=C1NC1CCc2cc(S(=O)(=O)NCC(C)C)c3cc(C4CC4)ncc3c21` (centres unmarked) [Example 66, 3-cyclopropyl-9-[[4-(ethylamino)-1,1-dioxo-1,2,5-thiadiazol-3-yl]amino]-N-(2-methylpropyl)-8,9-dihydro-7H-cyclopenta[h]isoquinoline-5-sulfonamide] is 100 to 2000 nM; for `CC(C)(F)CNS(=O)(=O)c1cc2c(c3cnc(C4CC4)cc13)[C@H](NC(=O)c1c[nH]c3cc(F)ccc13)CC2` (single isomer, unassigned) [Example 16, 6-fluoro-N-[(9R*)-3-cyclopropyl-5-[(2-fluoro-2-methylpropyl)sulfamoyl]-8,9-dihydro-7H-cyclopenta[h]isoquinolin-9-yl]-1H-indole-3-carboxamide] it is 100 to 2000 nM. Next, `Cn1nnc(-c2ccc(NC3CCc4c3cc(S(=O)(=O)NCC(C)(C)F)c3cc(C5CC5)ncc43)cn2)n1` (centres unmarked) [Example 40, 3-cyclopropyl-N-(2-fluoro-2-methylpropyl)-7-[[6-(2-methyltetrazol-5-yl)pyridin-3-yl]amino]-8,9-dihydro-7H-cyclopenta[h]isoquinoline-5-sulfonamide]: 1 to 10 nM. The figure for `CNC(=O)[C@H]1CCCN1[C@@H]1CCc2c1cc(S(=O)(=O)NCC(C)(C)F)c1cc(C3CC3)ncc21` (relative stereo) [Example 58, (2R)-1-[(7R*)-3-cyclopropyl-5-[(2-fluoro-2-methylpropyl)sulfamoyl]-8,9-dihydro-7H-cyclopenta[h]isoquinolin-7-yl]-N-methylpyrrolidine-2-carboxamide] is 100 to 2000 nM. Consider `CC(C)CNS(=O)(=O)c1cc2c(c3cnc(C4CC4)cc13)C(NC(=O)OCc1ccccc1)CC2` (centres unmarked) [Example 44, benzyl N-[3-cyclopropyl-5-(2-methylpropylsulfamoyl)-8,9-dihydro-7H-cyclopenta[h]isoquinolin-9-yl]carbamate], for which the concentration for half-maximal inhibition (IC50) fell in the range of 100 to 2000 nM.

As to `CC(C)CNS(=O)(=O)c1cc2c(c3cnc(C4CC4)cc13)CCC2Nc1nc2ccccc2[nH]1` (centres unmarked) [Example 92, 7-(1H-benzimidazol-2-ylamino)-3-cyclopropyl-N-(2-methylpropyl)-8,9-dihydro-7H-cyclopenta[h]isoquinoline-5-sulfonamide], the IC50 lay in the range of 10 to 50 nM.

For the compound `CC(C)CNS(=O)(=O)c1cc2c(c3cnc(C4CC4)cc13)C(Nc1nncn1-c1cccnc1)CC2` (centres unmarked) [Example 75, 3-cyclopropyl-N-(2-methylpropyl)-9-[(4-pyridin-3-yl-1,2,4-triazol-3-yl]amino]-8,9-dihydro-7H-cyclopenta[h]isoquinoline-5-sulfonamide], the IC50 is 10 to 50 nM. In the case of `CCNC(=S)NC1CCc2c1cc(S(=O)(=O)NCC(C)C)c1cc(C3CC3)ncc21` (centres unmarked) [Example 51, 1-[3-cyclopropyl-5-(2-methylpropylsulfamoyl)-8,9-dihydro-7H-cyclopenta[h]isoquinolin-7-yl]-3-ethylthiourea], the IC50 lay in the range of 100 to 2000 nM.

In the case of `CC(C)(F)CNS(=O)(=O)c1cc2c(c3cnc(C4CC4)cc13)CCC2(O)c1cccnc1` (centres unmarked) [Example 10, 3-cyclopropyl-N-(2-fluoro-2-methylpropyl)-7-hydroxy-7-pyridin-3-yl-8,9-dihydrocyclopenta[h]isoquinoline-5-sulfonamide], the IC50 fell in the range of 100 to 2000 nM. Next, `CCNc1nncn1C1CCc2cc(S(=O)(=O)NCC(C)C)c3cc(C4CC4)ncc3c21` (centres unmarked) [Example 72, 3-cyclopropyl-9-[3-(ethylamino)-1,2,4-triazol-4-yl]-N-(2-methylpropyl)-8,9-dihydro-7H-cyclopenta[h]isoquinoline-5-sulfonamide]: 100 to 2000 nM; `CCNC(=S)NC1CCc2cc(S(=O)(=O)NCC(C)C)c3cc(C4CC4)ncc3c21` (centres unmarked) [Example 71, 1-[3-cyclopropyl-5-(2-methylpropylsulfamoyl)-8,9-dihydro-7H-cyclopenta[h]isoquinolin-9-yl]-3-ethylthiourea]: 100 to 2000 nM.
